Results as given in patent publication US10988505B2.

Columns and labels:
[1] = target: recombinant human matriptase (Homo sapiens (Human), UniProt Q9Y5Y6); assay: Matriptase inhibition, Ki determination; type: biochemical; settings: purified recombinant human matriptase, Boc-Gln-Ala-Arg-AMC substrate, pH 7.4
X31 H3N2 influenza virus = assay: Influenza virus replication X31 in Calu-3 cells (viral plaque assay); type: cell-based; settings: Calu-3 human bronchial epithelial cells, 48 h, read-out: calu3_x31_H3N2 EC50 (avg)
cartilage damage = assay: Osteoarthritis (OA) model, DMM surgery; type: in vivo, C57BL/6J mice; settings: DMM mice, 5 microlitre intraarticular injections of 10 mg/ml in saline on days 7 and 28, scored day 56
Procedure: The ability of the tested compound to protects against in vivo aggrecan loss in an osteoarthritis (OA) model was evaluated as described by Litherland G J. et al. Arthritis Rheumatol 2014; 66:2175-87.
OA was induced in C57BL/6J mice following destabilization of the medial meniscus (DMM) surgery. Mice received 5 microlitre intraarticular injections of either saline or Compound 1 (10 mg/ml in saline) on days 7 and 28 post surgery. At day 56 post-surgery, mice were killed, knee joints isolated and fixed overnight in 7% formaldehyde in PBS. Joints were decalcified in EDTA in PBS for 10 days and then wax embedded. Consecutive sections (6 μm) were stained with safranin 0 with hematoxylin counterstaining and then cartilage damage graded (by two blinded, independent observers) according to a published grading system [Litherland, 2014]: 0 (normal) to 6 (vertical clefts/erosion to the calcified cartilage extending to […] of the articular surface). Bars show the mean+/−SD of the highestscores in the medial tibial and femoral condyles for each joint. […] The results are depicted in FIG. 1.
**P<0.01 for the control and ***P<0.001 for Compound 1, by Kruskal-Wallis test with Dunn's multiple comparison test.

Chain of recombinant human matriptase (Q9Y5Y6 615-855, other chains not shown): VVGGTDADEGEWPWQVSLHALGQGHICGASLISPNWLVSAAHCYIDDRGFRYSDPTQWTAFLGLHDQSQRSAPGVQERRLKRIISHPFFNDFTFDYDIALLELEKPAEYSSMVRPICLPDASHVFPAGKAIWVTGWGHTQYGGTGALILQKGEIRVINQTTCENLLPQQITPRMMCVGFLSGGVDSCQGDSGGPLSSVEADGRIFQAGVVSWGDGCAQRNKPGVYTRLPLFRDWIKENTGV

| SMILES | Ki [1] [nM] | EC50 (X31 H3N2 influenza virus) [nM] | cartilage damage score (cartilage damage) |
| --- | --- | --- | --- |
| N=C(N)NCCCCC(=O)N[C@@H](CCC(N)=O)C(=O)N[C@@H](Cc1ccccc1)C(=O)N[C@@H](CCCNC(=N)N)C(=O)c1nc2ccccc2s1 [Example 1] | 0.134 | 20.9 | decreased the cartilage damage score |
| CC(=O)N[C@@H](CCC(N)=O)C(=O)N[C@@H](Cc1ccccc1)C(=O)N[C@@H](CCCNC(=N)N)C(=O)c1nc2ccccc2s1 [Example 3] | – | 34 | – |
| C[C@H](NC(=O)[C@@H](N)CCC(N)=O)C(=O)N[C@@H](CCCNC(=N)N)C(=O)c1nc2ccccc2s1 [Comparative #2, reference compound] | 0.0877 | 5690 | – |
| C[C@H](NC(=O)[C@H](CCC(N)=O)NC(=O)[C@@H](N)CCCNC(=N)N)C(=O)N[C@@H](CCCNC(=N)N)C(=O)c1nc2ccccc2s1 [Comparative #1, reference compound] | – | 7700 | – |
